Data: patent US12606827B2, “Compounds for treatment of osteoarthritis” (Altos Labs, Inc., priority 2020, dated 2026)

Test system: Healthy Articular Chondrocytes (HACs)
Assay: LPS-stimulated intracellular ROS (CM-H2DCFDA) in healthy chondrocytes
Type: cell-based, human
Conditions: 0.1 μM and 1 μM, 1 h pretreatment, then LPS 1 μg/ml for 48 h
Procedure: Human articular chondrocytes (HAC) were transiently transfected with a siRNA control or targeting USP16 as described in Example 2. 36 hours post knockdown, cells were stimulated with LPS 1 μg/ml) for 48 h. Healthy Articular Chondrocytes (HACs) were pretreated with 0.1- and 1-μM Compound 2 for 1 h and then stimulated with LPS (1 μg/ml) for 48 h. At the end of the treatment, fluorescent dye, CM-H2DCFDA (final concentration 10 μl of 20 μM) was added to cells and incubated for 30 min in CO2 incubator to measure the intracellular ROS produced in these cells. After incubation, the cells were washed with cold-phosphate buffered saline and the fluorescence intensity of the stained cells was measured at an excitation and emission wavelength of 485 nm and 530 nm respectively. Fluorescence intensity was then normalized for cell number using Hoechst staining.
Chondrocytes were pretreated with 0.1- and 1-μM CA for 1 h and then stimulated with LPS (1 μg/m)l for 48 h. For siRNA experiment, LPS stimulation was performed 36 hours after knockdown for additional 48 h. […] After incubation, the cells were washed with cold-phosphate buffered saline and the fluorescence intensity of the stained cells was measured at an excitation and emission wavelength of 485 nm and 530 nm respectively. Fluorescence intensity was then normalized for cell number using Hoechst staining.

For `C#Cc1ccc(CNC(=O)c2cc(C(=O)CCl)cn2C)cc1` [Compound 2], the “inflammation-induced oxidative stress (intracellular ROS)” value was “reduced inflammation-induced oxidative stress in healthy chondrocytes in a dose-dependent manner”.
